Like-named read-outs stand apart in the source and are kept apart here.
Experiments:
Androgen Receptor [1] = biological target: T1, Androgen Receptor (Homo sapiens, UniProt P10275+P40337, T878A); experiment: Androgen Receptor ELISA assay (PathScan AR ELISA) in LNCaP cells: AR degradation, Dmax and DC50; type: cell-based; conditions: for DC50: concentration that caused 50% Androgen Receptor degradation
T1 construct: Compounds have been evaluated in this assay in LNCaP and/or VCaP cells utilizing similar protocols; endogenous in cells; host or cells: LNCaP cells

Androgen Receptor [2] = biological target: T2, Androgen Receptor (Homo sapiens, UniProt P10275); experiment: Androgen Receptor ELISA assay (PathScan AR ELISA) in VCaP cells: AR degradation, Dmax and DC50; type: cell-based
T2 construct: endogenous in cells; host or cells: VCaP cells
T2 sequence (P10275 1-920): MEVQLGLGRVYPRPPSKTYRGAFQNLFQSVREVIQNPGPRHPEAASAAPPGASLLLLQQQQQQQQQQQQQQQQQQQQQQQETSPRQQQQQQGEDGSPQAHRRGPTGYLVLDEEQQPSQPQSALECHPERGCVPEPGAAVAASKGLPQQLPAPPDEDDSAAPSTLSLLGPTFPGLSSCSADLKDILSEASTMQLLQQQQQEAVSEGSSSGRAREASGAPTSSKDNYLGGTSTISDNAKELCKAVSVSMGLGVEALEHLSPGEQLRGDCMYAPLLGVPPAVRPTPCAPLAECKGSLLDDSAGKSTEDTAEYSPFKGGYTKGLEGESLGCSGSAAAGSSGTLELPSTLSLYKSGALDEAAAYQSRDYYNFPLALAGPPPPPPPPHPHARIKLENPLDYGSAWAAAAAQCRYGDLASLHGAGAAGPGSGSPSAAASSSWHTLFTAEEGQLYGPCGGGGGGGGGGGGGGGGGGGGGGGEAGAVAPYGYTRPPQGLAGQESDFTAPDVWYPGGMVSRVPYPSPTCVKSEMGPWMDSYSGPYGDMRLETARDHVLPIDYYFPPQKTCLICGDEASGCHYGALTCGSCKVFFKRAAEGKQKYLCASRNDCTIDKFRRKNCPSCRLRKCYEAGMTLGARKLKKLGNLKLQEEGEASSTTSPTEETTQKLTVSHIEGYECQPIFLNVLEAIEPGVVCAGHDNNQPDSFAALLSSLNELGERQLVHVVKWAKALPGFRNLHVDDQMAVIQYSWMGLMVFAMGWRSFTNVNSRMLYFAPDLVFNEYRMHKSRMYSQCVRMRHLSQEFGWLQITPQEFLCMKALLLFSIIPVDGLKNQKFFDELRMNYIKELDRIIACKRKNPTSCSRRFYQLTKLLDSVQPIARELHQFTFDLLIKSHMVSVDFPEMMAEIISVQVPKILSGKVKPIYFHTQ
Summary of the method: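 VCaP cells, 30,000/well, grown ≥3 days in phenol red-free RPMI with 5% charcoal-stripped FBS; compound added in 0.1% DMSO with 0.1 nM R1881, 7 half-log doses, 24 h. Lysate AR quantified by PathScan sandwich ELISA, HRP/TMB read at 450 nm, giving DC50 and Dmax.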

[3] = highest percentage of Androgen Receptor degradation observed
[4] = read-out: VCaP DC50; concentration that caused 50% Androgen Receptor degradation, VCaP cells
[5] = highest percentage of Androgen Receptor degradation
[6] = read-out: VCaP DC50; VCaP cells; concentration that caused 50% Androgen Receptor degradation

T1 sequence (P10275 whole entry T878A): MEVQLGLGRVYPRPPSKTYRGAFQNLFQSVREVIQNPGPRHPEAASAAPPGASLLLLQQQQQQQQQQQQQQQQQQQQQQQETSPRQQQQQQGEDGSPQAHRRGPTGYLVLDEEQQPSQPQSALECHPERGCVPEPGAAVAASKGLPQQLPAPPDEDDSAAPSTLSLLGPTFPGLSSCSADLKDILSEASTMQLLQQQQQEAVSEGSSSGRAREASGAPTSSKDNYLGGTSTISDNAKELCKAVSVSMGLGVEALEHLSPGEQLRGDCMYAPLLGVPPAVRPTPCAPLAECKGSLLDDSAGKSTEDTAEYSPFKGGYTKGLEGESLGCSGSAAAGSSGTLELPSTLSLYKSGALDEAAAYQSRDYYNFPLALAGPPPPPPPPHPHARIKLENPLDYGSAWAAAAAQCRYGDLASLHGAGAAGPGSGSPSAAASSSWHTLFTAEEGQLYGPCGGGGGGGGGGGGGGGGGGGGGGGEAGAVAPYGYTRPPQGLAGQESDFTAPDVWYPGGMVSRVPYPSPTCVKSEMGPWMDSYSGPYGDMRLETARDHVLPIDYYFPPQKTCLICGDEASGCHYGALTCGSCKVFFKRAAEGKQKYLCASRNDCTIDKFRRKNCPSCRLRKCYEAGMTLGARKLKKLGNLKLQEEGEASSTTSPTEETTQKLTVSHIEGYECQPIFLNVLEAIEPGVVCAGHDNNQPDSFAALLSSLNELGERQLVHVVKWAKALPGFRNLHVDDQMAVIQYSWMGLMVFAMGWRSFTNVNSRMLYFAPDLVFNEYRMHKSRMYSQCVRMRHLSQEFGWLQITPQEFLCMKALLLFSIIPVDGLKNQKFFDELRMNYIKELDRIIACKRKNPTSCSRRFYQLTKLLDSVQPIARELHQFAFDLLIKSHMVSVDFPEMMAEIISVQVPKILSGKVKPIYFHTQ
T1 sequence (P40337 whole entry): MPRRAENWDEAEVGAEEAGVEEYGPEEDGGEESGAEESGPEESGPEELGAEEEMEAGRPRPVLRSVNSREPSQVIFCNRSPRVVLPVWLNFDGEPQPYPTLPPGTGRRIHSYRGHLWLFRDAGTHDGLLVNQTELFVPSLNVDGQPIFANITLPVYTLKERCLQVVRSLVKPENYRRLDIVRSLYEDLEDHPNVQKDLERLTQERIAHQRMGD
T1 sequence (Q15369 whole entry partner): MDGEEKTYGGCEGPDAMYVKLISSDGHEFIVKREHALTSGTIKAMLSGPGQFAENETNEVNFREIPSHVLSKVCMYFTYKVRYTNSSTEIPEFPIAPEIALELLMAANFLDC
T1 sequence (Q15370 whole entry partner): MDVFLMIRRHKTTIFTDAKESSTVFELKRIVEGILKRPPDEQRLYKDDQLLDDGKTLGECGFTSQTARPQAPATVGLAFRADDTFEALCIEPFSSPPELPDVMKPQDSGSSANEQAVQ

Structure (SMILES) | DC50 (Androgen Receptor [1]) | Dmax (Androgen Receptor [1]; [3]) | Dmax (Androgen Receptor [2]; VCaP, read-out: VCaP Dmax (%)) | DC50 (Androgen Receptor [2]; [4]) | Dmax (Androgen Receptor [1]; [5]) | DC50 (Androgen Receptor [2]; [6]) | LNCaP Dmax (%) (Androgen Receptor [1]; [3]) | DC50 (Androgen Receptor [2]; concentration that caused 50% Androgen Receptor degradation, VCaP cells; read-out: VCaP DC50) | VCaP Dmax (%) (Androgen Receptor [2]; highest percentage of Androgen Receptor degradation observed, VCaP cells)
Cc1ncsc1-c1ccc(CNC(=O)[C@@H]2C[C@@H](O)CN2C(=O)[C@@H](NC(=O)COCCCCCNC(=O)CCCc2ccc(N3C(=S)N(c4ccc(C#N)c(C(F)(F)F)c4)C(=O)C3(C)C)cc2)C(C)(C)C)cc1 [Example 63, (2S,4R)-1-[(2S)-2-[2-({5-[4-(4-{3-[4-cyano-3-(trifluoromethyl)phenyl]-5,5-dimethyl-4-oxo-2-sulfanylideneimidazolidin-1-yl}phenyl)butanamido]pentyl}oxy)acetamido]-3,3-dimethylbutanoyl]-4-hydroxy-N-{[4-(4-methyl-1,3-thiazol-5-yl)phenyl]methyl}pyrrolidine-2-carboxamide] | 51 to 500 nM | > 71% | 26 to 50% | < 50 nM | – | – | – | – | –
Cc1ncsc1-c1ccc(CNC(=O)[C@@H]2C[C@@H](O)CN2C(=O)[C@@H](NC(=O)COCCCOCCCCOc2ccc(CN3C(=S)N(c4ccc(C#N)c(C(F)(F)F)c4)C(=O)C3(C)C)cc2)C(C)(C)C)cc1 [Example 308] | 51 to 500 nM | – | 51 to 70% | – | 51 to 70% | < 50 nM | – | – | –
Cc1ncsc1-c1ccc(CNC(=O)[C@@H]2C[C@@H](O)CN2C(=O)[C@@H](NC(=O)COCCCOCCCCOc2ccc(N3C(=S)N(c4ccc(C#N)c(C(F)(F)F)c4)C(=O)C3(C)C)cc2F)C(C)(C)C)cc1 [Example 27, (2S,4R)-1-[(2S)-2-(2-{3-[4-(4-{3-[4-cyano-3-(trifluoromethyl)phenyl]-5,5-dimethyl-4-oxo-2-sulfanylideneimidazolidin-1-yl}-2-fluorophenoxy)butoxy]propoxy}acetamido)-3,3-dimethylbutanoyl]-4-hydroxy-N-{[4-(4-methyl-1,3-thiazol-5-yl)phenyl]methyl}pyrrolidine-2-carboxamide] | < 50 nM | > 71% | > 71% | < 50 nM | – | – | – | – | –
Cc1ncsc1-c1ccc(CNC(=O)[C@@H]2C[C@@H](O)CN2C(=O)[C@@H](NC(=O)CCCOCCCOCCCOc2ccc(N3C(=S)N(c4ccc(C#N)c(C(F)(F)F)c4)C(=O)C3(C)C)cc2)C(C)(C)C)cc1 [Example 301] | < 50 nM | – | 51 to 70% | – | 51 to 70% | – | – | – | –
Cc1ncsc1-c1ccc(CNC(=O)[C@@H]2C[C@@H](O)CN2C(=O)[C@@H](NC(=O)COCCOCCOc2ccc(-c3ccc(N4C(=S)N(c5ccc(C#N)c(C(F)(F)F)c5)C(=O)C4(C)C)cc3F)cc2)C(C)(C)C)cc1 [Example 73, (2S,4R)-1-[(2S)-2-[2-(2-{2-[4-(4-{3-[4-cyano-3-(trifluoromethyl)phenyl]-5,5-dimethyl-4-oxo-2-sulfanylideneimidazolidin-1-yl}-2-fluorophenyl)phenoxy]ethoxy}ethoxy)acetamido]-3,3-dimethylbutanoyl]-4-hydroxy-N-{[4-(4-methyl-1,3-thiazol-5-yl)phenyl]methyl}pyrrolidine-2-carboxamide] | < 50 nM | > 71% | 51 to 70% | < 50 nM | – | – | – | – | –
Cc1ncsc1-c1ccc(CNC(=O)[C@@H]2C[C@@H](O)CN2C(=O)[C@@H](NC(=O)COCCCCCOC2CCN(C(=O)c3ccc(N4C(=S)N(c5ccc(C#N)c(C(F)(F)F)c5)C(=O)C4(C)C)cc3)CC2)C(C)(C)C)cc1 [Example 294] | 51 to 500 nM | – | 26 to 50% | – | 26 to 50% | 51 to 500 nM | – | – | –
Cc1ncsc1-c1ccc(CNC(=O)[C@@H]2C[C@@H](O)CN2C(=O)[C@@H](NC(=O)Cc2cccc(OCCCOCCOc3ccc(N4C(=S)N(c5ccc(C#N)c(C(F)(F)F)c5)C(=O)C4(C)C)cc3)c2)C(C)(C)C)cc1 [Example 298] | 51 to 500 nM | – | 26 to 50% | – | 51 to 70% | 51 to 500 nM | – | – | –
Cc1ncsc1-c1ccc(CNC(=O)[C@@H]2C[C@@H](O)CN2C(=O)[C@@H](NC(=O)OCCCCCOc2ccc(-c3ccc(N4C(=S)N(c5ccc(C#N)c(C(F)(F)F)c5)C(=O)C4(C)C)cc3)cc2)C(C)(C)C)cc1 [Example 74, 5-[4-(4-{3-[4-cyano-3-(trifluoromethyl)phenyl]-5,5-dimethyl-4-oxo-2-sulfanylideneimidazolidin-1-yl}phenyl)phenoxy]pentyl N-[(2S)-1-[(2S,4R)-4-hydroxy-2-({[4-(4-methyl-1,3-thiazol-5-yl)phenyl]methyl}carbamoyl)pyrrolidin-1-yl]-3,3-dimethyl-1-oxobutan-2-yl]carbamate] | < 50 nM | > 71% | 26 to 50% | < 50 nM | – | – | – | – | –
Cc1ncsc1-c1ccc(CNC(=O)[C@@H]2C[C@@H](O)CN2C(=O)[C@@H](NC(=O)COCCCCOCCCOc2ccc(N3C(=S)N(c4ccc(C#N)c(C(F)(F)F)c4)C(=O)C3(C)C)cc2)C(C)(C)C)cc1 [Example 52, (2S,4R)-1-[(2S)-2-(2-{4-[3-(4-{3-[4-cyano-3-(trifluoromethyl)phenyl]-5,5-dimethyl-4-oxo-2-sulfanylideneimidazolidin-1-yl}phenoxy)propoxy]butoxy}acetamido)-3,3-dimethylbutanoyl]-4-hydroxy-N-{[4-(4-methyl-1,3-thiazol-5-yl)phenyl]methyl}pyrrolidine-2-carboxamide] | < 50 nM | > 71% | > 71% | < 50 nM | – | – | – | – | –
Cc1ncsc1-c1ccc([C@H](C)NC(=O)[C@@H]2C[C@@H](O)CN2C(=O)[C@@H](NC(=O)COCCOCCOc2ccc(-c3ccc(N4C(=S)N(c5ccc(C#N)c(C(F)(F)F)c5)C(=O)C4(C)C)cc3F)cc2)C(C)(C)C)cc1 [Example 79, (2S,4R)-l-[(2S)-2-[2-(2-{2-[4-(4-{3-[4-cyano-3-(trifluoromethyl)phenyl]-5,5-dimethyl-4-oxo-2-sulfanylideneimidazolidin-1-yl}-2-fluorophenyl)phenoxy]ethoxy}ethoxy)acelamido]-3,3-dimethylbutanoyl]-4-hydroxy-N-[(1S)-l-[4-(4-methyl-l,3-thiazol-5-yl)phenyl]ethyl]pyrrolidine-2-carboxamide] | < 50 nM | – | – | – | – | – | ++++ (71% ≤ Dmax) | < 50 nM | +++ (51% ≤ Dmax ≤ 70%)
Cc1ncsc1-c1ccc(CNC(=O)[C@@H]2C[C@@H](O)CN2C(=O)[C@@H](NC(=O)CCOCCOc2ccc(-c3ccc(N4C(=S)N(c5ccc(C#N)c(C(F)(F)F)c5)C(=O)C4(C)C)cc3)cc2)C(C)(C)C)cc1 [Example 70, (2S,4R)-1-[(2S)-2-(3-{2-[4-(4-{3-[4-cyano-3-(trifluoromethyl)phenyl]-5,5-dimethyl-4-oxo-2-sulfanylideneimidazolidin-1-yl}phenyl)phenoxy]ethoxy}propanamido)-3,3-dimethylbutanoyl]-4-hydroxy-N-{[4-(4-methyl-1,3-thiazol-5-yl)phenyl]methyl}pyrrolidine-2-carboxamide] | < 50 nM | > 71% | 26 to 50% | < 50 nM | – | – | – | – | –
Cc1ncsc1-c1ccc(CNC(=O)[C@@H]2C[C@@H](O)CC2C(=O)[C@H](C(C)C)N2Cc3ccccc3C2=O)c(OCCOC2CCCC[C@@H]2OCCOc2ccc(N3C(=S)N(c4ccc(C#N)c(C(F)(F)F)c4)C(=O)C3(C)C)cc2)c1 (stereo partly drawn) [Example 297] | > 501 nM | – | 26 to 50% | – | 26 to 50% | – | – | – | –
Cc1ncsc1-c1ccc(CNC(=O)[C@@H]2C[C@@H](O)CN2C(=O)[C@@H](NC(=O)CCc2ccc(OCCCOc3ccc(N4C(=S)N(c5ccc(C#N)c(C(F)(F)F)c5)C(=O)C4(C)C)cc3)cc2)C(C)(C)C)cc1 [Example 292] | 51 to 500 nM | – | 26 to 50% | – | 51 to 70% | 51 to 500 nM | – | – | –
Cc1ncsc1-c1ccc(CNC(=O)[C@@H]2C[C@@H](O)CN2C(=O)[C@@H](NC(=O)COCCOc2ccc(-c3ccc(N4C(=S)N(c5ccc(C#N)c(C(F)(F)F)c5)C(=O)C4(C)C)cc3)cc2)C(C)(C)C)cc1 [Example 78] | < 50 nM | > 71% | 51 to 70% | < 50 nM | – | – | – | – | –
